What was measured:
[1] = system: antibodies in sera from SARS patients (sera 1a, 1b, 2, 6, 37, 62, London, SARS-yellow, SARS-green); format: binding, human; design: Binding of serum 6 to linear peptides of protein X1 of SARS-CoV Urbani / Binding of serum 37 to linear peptides of protein X1 of SARS-CoV Urbani / Binding of serum 6 to looped/cyclic peptide (PEPSCAN-ELISA) / Binding of serum 37 to looped/cyclic peptide (PEPSCAN-ELISA) / Binding of serum 37 to looped/cyclic peptides of protein X1 of SARS-CoV Urbani / Binding of serum 6 to linear peptides of protein X2 / Binding of serum 37 to linear peptides of protein X2 / Binding of serum 37 to looped/cyclic peptides of protein X2 of SARS-CoV Urbani / Binding of serum 6 to linear peptides of protein M of SARS-CoV Urbani / Binding of serum 37 to linear peptides of protein M of SARS-CoV Urbani / Binding of serum 6 to looped/cyclic peptides of protein M of SARS-CoV Urbani / Binding of serum 37 to looped/cyclic peptides of protein M of SARS-CoV Urbani / Binding of serum 6 to linear peptides of protein X3 of SARS-CoV Urbani / Binding of serum 37 to linear peptides of protein X3 of SARS-CoV Urbani / Binding of serum 37 to looped/cyclic peptides of protein X3 of SARS-CoV Urbani / Binding of serum 6 to linear peptides of protein X4 of SARS-CoV Urbani / Binding of serum 37 to linear peptides of protein X4 of SARS-CoV Urbani / Binding of serum 37 to looped/cyclic peptides of protein X4 of SARS-CoV Urbani / Binding of serum 6 to linear peptides of protein X5 of SARS-CoV Urbani / Binding of serum 37 to linear peptides of protein X5 of SARS-CoV Urbani / Binding of serum 37 to looped/cyclic peptides of protein X5 of SARS-CoV Urbani / Binding of serum 6 to linear peptides of protein N of SARS-CoV Urbani / Binding of serum 37 to linear peptides of protein N of SARS-CoV Urbani / Binding of serum 6 to linear peptide (PEPSCAN-ELISA) / Binding of serum 1a to looped/cyclic peptides of protein N of SARS-CoV Urbani / Binding of serum 1b to looped/cyclic peptides of protein N of SARS-CoV Urbani / Binding of serum 2 to looped/cyclic peptides of protein N of SARS-CoV Urbani / Binding of serum 6 to looped/cyclic peptides of protein N of SARS-CoV Urbani / Binding of serum 37 to looped/cyclic peptides of protein N of SARS-CoV Urbani / Binding of serum 62 to looped/cyclic peptides of protein N of SARS-CoV Urbani / Binding of serum London to looped/cyclic peptides of protein N of SARS-CoV Urbani / Binding of serum SARS-green to looped/cyclic peptides of protein N of SARS-CoV Urbani: unit not given here
[2] = system: control sera (pooled serum of ten healthy LUMC hospital workers; commercial negative donor pooled serum from the Dutch bloodbank); format: binding, human; design: Binding of Control serum LUMC to linear peptides / Binding of Control serum Blood-bank to linear peptides / Binding of Control serum LUMC to looped peptides / Binding of Control Serum Blood-Bank to Looped peptides / Binding of Control serum LUMC to linear peptides of the protein M of SARS-CoV Urbani / Binding of Control serum Blood-bank to linear peptides of the protein M of SARS-CoV Urbani / Binding of Control serum LUMC to looped peptides of the protein M of SARS-CoV Urbani / Binding of Control Serum Blood-Bank to Looped peptides of the protein M of SARS-CoV Urbani: unit not given here
[3] = system: rabbit serum obtained by immunizing a rabbit with the SARS-CoV strain Frankfurt 1; format: binding; design: Binding of a rabbit serum to linear peptides / Binding of a rabbit serum to looped peptides / Rabbit serum linear peptides / Rabbit serum looped peptides / Binding of a rabbit serum to linear peptides of protein N of SARS-CoV Urbani (Rabbit serum linear peptides) / Binding of a rabbit serum to looped/cyclic peptides of protein N of SARS-CoV Urbani (Rabbit serum looped peptides): unit not given here
[4] = system: recombinant human anti-SARS-CoV antibody 03-018; format: binding; design: Binding of antibody 03-018 to linear peptides of the N protein of SARS-CoV Urbani / Binding of antibody 03-018 to looped/cyclic peptides of the N protein of SARS-CoV Urbani: unit not given here

Sequence | Binding of serum 1a to linear peptides of protein N of SARS-CoV Urbani [1] | Binding of serum 1a to looped/cyclic peptides of protein N of SARS-CoV Urbani [1] | Binding of serum 1b to linear peptides of protein N of SARS-CoV Urbani [1] | Binding of serum 1b to looped/cyclic peptides of protein N of SARS-CoV Urbani [1] | Binding of serum 2 to linear peptides of protein N of SARS-CoV Urbani [1] | Binding of serum 2 to looped/cyclic peptides of protein N of SARS-CoV Urbani [1] | Binding of serum 6 to linear peptides of protein N of SARS-CoV Urbani [1] | Binding of serum 6 to looped/cyclic peptides of protein N of SARS-CoV Urbani [1] | Binding of serum 37 to linear peptides of protein N of SARS-CoV Urbani [1] | Binding of serum 37 to looped/cyclic peptides of protein N of SARS-CoV Urbani [1] | Binding of serum 62 to linear peptides of protein N of SARS-CoV Urbani [1] | Binding of serum 62 to looped/cyclic peptides of protein N of SARS-CoV Urbani [1] | Binding of serum London to linear peptides of protein N of SARS-CoV Urbani [1] | Binding of serum London to looped/cyclic peptides of protein N of SARS-CoV Urbani [1] | Binding of serum SARS-green to linear peptides of protein N of SARS-CoV Urbani [1] | Binding of serum SARS-green to looped/cyclic peptides of protein N of SARS-CoV Urbani [1] | Binding of serum SARS-yellow to linear peptides of protein N of SARS-CoV Urbani [1] | Binding of serum SARS-yellow to looped/cyclic peptides of protein N of SARS-CoV Urbani [1] | Binding of antibody 03-018 to linear peptides of the N protein of SARS-CoV Urbani [4] | Binding of antibody 03-018 to looped/cyclic peptides of the N protein of SARS-CoV Urbani [4] | also measured
GYYRRATRRVRGGDG | 0.3 | 0.3 | 0.1 | 0.1 | 0.1 | 0.4 | 0.2 | 0.2 | 0.3 | 0.5 | 0.4 | 0.4 | 0.4 | 0.3 | 0.2 | 0.2 | 0.6 | 0.2 | 0.1 | 0.2 | Binding of Control Serum Blood-Bank to Looped peptides [2]: 0.6; Binding of Control serum Blood-bank to linear peptides [2]: 0.6; Binding of Control serum LUMC to linear peptides [2]: 0.6; Binding of Control serum LUMC to looped peptides [2]: 0.5; Recognition of the peptide by the rabbit serum [3]: recognized
MDDFSRQLQNSMSGA | 0.2 | 0.4 | 0.1 | 0.1 | 0.3 | 0.4 | 0.2 | 0.1 | 0.8 | 0.4 | 0.7 | 0.4 | 0.8 | 0.3 | 0.6 | 0.3 | 0.7 | 0.2 | 0.2 | 0.2 | Control Serum Blood-Bank Looped peptides [2]: 0.5; Control serum Blood-bank linear peptides [2]: 1.0; Control serum LUMC linear peptides [2]: 0.7; Control serum LUMC looped peptides [2]: 0.5; Binding of a rabbit serum to linear peptides of protein N of SARS-CoV Urbani (Rabbit serum linear peptides) [3]: 0.2; Binding of a rabbit serum to looped/cyclic peptides of protein N of SARS-CoV Urbani (Rabbit serum looped peptides) [3]: 0.4
KGFYAEGSRGGSQAS |  | 0.3 |  | 0.2 |  | 0.3 |  | 0.2 |  | 0.4 |  | 0.3 |  | 0.3 |  | 0.1 |  | 0.1 | 0.1 | 0.2 | Binding of serum 1a to linear peptide (PEPSCAN-ELISA) [1]: 0.2; Binding of serum 1b to linear peptide (PEPSCAN-ELISA) [1]: 0.1; Binding of serum 2 to linear peptide (PEPSCAN-ELISA) [1]: 0.2; Binding of serum 6 to linear peptide (PEPSCAN-ELISA) [1]: 0.2; Binding of serum 37 to linear peptide (PEPSCAN-ELISA) [1]: 0.6; Binding of serum 62 to linear peptide (PEPSCAN-ELISA) [1]: 0.5; Binding of serum London to linear peptide (PEPSCAN-ELISA) [1]: 0.4; Binding of serum SARS-green to linear peptide (PEPSCAN-ELISA) [1]: 0.2; Binding of serum SARS-yellow to linear peptide (PEPSCAN-ELISA) [1]: 0.5; Binding of Control Serum Blood-Bank to Looped peptides [2]: 0.5; Binding of Control serum Blood-bank to linear peptides [2]: 0.7; Binding of Control serum LUMC to linear peptides [2]: 0.5; Binding of Control serum LUMC to looped peptides [2]: 0.4; Binding of a rabbit serum to linear peptides of protein N of SARS-CoV Urbani (Rabbit serum linear peptides) [3]: 0.1; Binding of a rabbit serum to looped/cyclic peptides of protein N of SARS-CoV Urbani (Rabbit serum looped peptides) [3]: 0.1
GIVWVATEGALNTPK | 0.3 | 0.3 | 0.2 | 0.1 | 0.5 | 0.4 | 0.3 | 0.2 | 0.9 | 0.5 | 0.9 | 0.4 | 0.6 | 0.4 | 1.0 | 0.3 | 0.8 | 0.3 | 0.1 | 0.2 | Binding of Control Serum Blood-Bank to Looped peptides [2]: 0.5; Binding of Control serum Blood-bank to linear peptides [2]: 1.0; Binding of Control serum LUMC to linear peptides [2]: 1.0; Binding of Control serum LUMC to looped peptides [2]: 0.5; Binding of a rabbit serum to linear peptides of protein N of SARS-CoV Urbani (Rabbit serum linear peptides) [3]: 0.2; Binding of a rabbit serum to looped/cyclic peptides of protein N of SARS-CoV Urbani (Rabbit serum looped peptides) [3]: 0.5

— patent US20070128217A1 (priority 2003, published 2007)
